According to patent publication US20140187570A1, “NOVEL FORMULATIONS OF PYRIMETHANIL, AND THEIR USE IN TREATMENT OF CROPS” (XEDA INTERNATIONAL, priority 2011, published 2014):

Assays:
Geotrichum candidum = experiment: Fungicidal activity on treated oranges (Example 5); assay type: in vivo; conditions: oranges treated with pyrimethanil alone
Protocol: Oranges are separated into three lots, and are treated as follows: • Lot 1 (control): oranges not treated; • Lot 2: oranges treated with pyrimethanil alone; • Lot 3: oranges treated with 250 g of the formulation according to Example 2 diluted in one hectolitre of water.

[1] = tested on: Monilinia fructicola strain resistant to pyrimethanil; experiment: In vitro growth inhibition of the halo on PDA Petri dishes, resistant strain; assay type: cell-based; conditions: dose 250 ml/hl
Protocol: The object of the study was to determine the efficacy of combinations according to the invention against the phytopathogenic fungus Monilinia fructicola, compared to pyrimethanil alone.
The efficacy of the combinations against Monilinia fructicola was determined by determining the inhibition of growth of the halo in accordance with various general methods (ISO 6887: 2003; ISO 7218: 2007; ISO 7954: 1987).
The samples were added to the artificial medium and were mixed gently prior to the solidification of the agar solution.
A small quantity of fungal spores was placed at the centre of the potato dextrose agar (PDA) in Petri dishes at 25±1° C. for 5-6 days. At the end of the incubation, the inhibition of the halo formed was measured, compared with untreated PDA Petri dishes (control).
The results are expressed as the percentage of incidence of the infestation, and the percentage of efficacy of the product tested.
Monilinia fructicola—Strain Resistant to Pyrimethanil: […]

Cc1cc(C)nc(Nc2ccccc2)n1 [pyrimethanil alone, 2-anilino-4,6-dimethylpyrimidine]
level of Geotrichum candidum compared with control lot (Geotrichum candidum): same level of Geotrichum candidum as the control lot | Efficacy (%) [1]: 45%
